The test system of assay [1] is Prostate-specific Antigen (PSA) production in LNCaP cells. The assay can be described thus: PSA assay: inhibition of PSA production in LNCaP cells (ELISA). The assay is classed as cell-based. To be noted: Homo sapiens, 72 h, R1881 1 ng/ml, three days, seven point assay. The method, then:
(§1) PSA Assay (Inhibition Test of the Compound of the Present Invention on Prostate-Specific Antigen (PSA) Production in Various Prostate Cancer Cells)
(§2) Androgen dependent LNCaP and 22RV1 cells were purchased from the American Type Culture Collection (ATCC, Manassas, Va.). These cells were grown in RPMI 1640 medium supplemented with 10% fetal bovine serum (FBS), 100 U/mL penicillin, 100 μg/mL streptomycin, and 0.25 μg/mL amphotericin B. The cells were maintained at 37° C. and 5% CO2. LNCaP cells between passage 20 and 35, and 22RV1 cells between passage 30 and 50 were used for experiments. LNCaP is a hormone sensitive cell line, while 22RV1 is a hormone refractory prostate cancer cell line, which derived from a primary prostate tumor. This cell line was isolated from a xenograft (CWR22R-2152) that was serially propagated in mice after castration-induced regression and relapse of the parental, androgen-dependent CWR xenograft. For the PSA assay, human prostate cancer cells LNCaP or 22RV1 were seeded in a 96-well plate at a concentration of 5000 cells/100 μl/well. On the following day, Methyltrienolone (R1881, AR agonist) (final concentration 1 ng/ml), test compounds or bicalutamide (Casodex®, AstraZeneca) (final concentration 0.005 to 20 μM) were added. Three days after the addition, the concentration of PSA in the supernatant of the culture solution was measured by ELISA. ELISAs for human PSA in culture medium were performed using the ultra-sensitive assay procedure and reagents in the Active™ PSA assay kit (Diagnostic Systems Laboratories Inc., Webster, Tex.). Culture medium and standards (200 μl/well) were incubated in antibody-coated plates for 2 h at room temperature on a Titer plate shaker at 500-600 rpm. Wells were then washed five times. The HRP conjugate was diluted 1:20 with assay buffer, and 100 μl was added to all wells. The plates were incubated for 30 min at room temperature on the shaker and washed as before, and 100 μl TMB (3,3′,5,5′-tetramethylbenzidine, 0.4 g/l) was added. The plates were incubated for 10 min on the shaker, and the reaction was terminated with 100 μl stop solution. The plates were read using a plate reader at 450 nm with a 650 nm reference filter. PSA levels were normalized for differences in growth of LNCaP or 22RV1 cells following various treatments as determined by the MTS assay. IC50 of PSA was calculated based on a seven point assay (concentrations of tested compound) and expressed as micromolar (uM). Results on 22RV1 cells are shown as percent inhibition at 2 micromolar (uM). ND means not determined
For orientation: In an ELISA, binding on a coated surface is turned into a signal by an enzyme label.

The subject of assay [2] is 22RV1 cells. The assay is described as follows: Cell viability assay, 22RV1 cells. The assay is classed as cell-based, human. To be noted: Homo sapiens, 22Rv1, 48 h, read-out: Inhibition of cell viability, 22RV1 % inhibition at 2.5 uM. The method, then:
(§3) LNCaP and 22RV1 cells were maintained in RPMI 1640 medium supplemented with 10% fetal bovine serum (FBS), 100 U/mL penicillin, 100 μg/mL streptomycin, and 0.25 μg/mL amphotericin B, splitting cells when they reached 80-90% confluence. In order to test compounds, 10,000 cells/well were plated in 96 cell culture plates using 100 ul/well plating medium, cultured overnight at 37° C. in a cell culture incubator. After carefully remove plating medium, 80 ul/well of pre-warmed assay medium was added, followed by adding 10 ul/well test compounds or bicalutamide (final concentration from 20 uM to 0.1 uM), incubated at 37° C. for 30 minutes, then adding 10 ul/well freshly prepared Methyltrienolone (R1881, AR agonist) (final concentration 1 ng/ml) to each well, incubate at 37° C. for 48-hour. At the end of incubation, 20 μl MTT (2.5 mg/ml in PBS) was added to each well, and the cells were further incubated for 2 h at 37 C to allow a complete reaction between the dye and the enzyme mitochondrial dehydrogenase in the viable cells. After removal of the residual dye and medium, 100 μl dimethylsulfoxide was added to each well, and the absorbance at 570 nm was measured with an microplate reader. The fold induction over background by 1 nM R1881 in the absence of test compounds is standardized as 100% and experimental result is expressed as percentage of inhibition by testing compounds at 2.5 micromolar (uM).

The subject of assay [3] is Prostate-specific Antigen (PSA) production in 22RV1 cells. The assay is described as follows: PSA assay: inhibition of PSA production in 22RV1 cells (ELISA). It counts as cell-based. To be noted: Homo sapiens, 72 h, R1881 1 ng/ml, three days. The method, then: as §1
as §2, with “Results on 22RV1 cells are shown as percent inhibition at 2 micromolar (uM).” left out

Assay [4] deals with LNCaP cells. The assay can be described thus: Cell viability assay, LNCaP cells. It counts as cell-based. To be noted: Homo sapiens, LNCaP, 48 h, read-out: Inhibition of cell viability, LNCaP % inhibition at 2.5 uM. The method, then:
as §3

Assay [5] deals with C57BL/6 mice. The assay is described as follows: C57BL/6 mouse hair growth model. The assay is classed as in vivo. The text has this:
C57BL/6 Mouse Hair Growth Model
Six-to 8-wk-old male C57BL/6 mice in the telogen stage of the hair cycle, weighing 15-20 g, were purchased and housed in community cages under standard conditions. The growth phase of the hair cycle (anagen) was induced in the back skin of mice with all follicles in the resting phase of the hair cycle (telogen; as judged from their homogeneously pink skin color) by being shaved on the lower back using an electric shaver under mild anesthesia. Only mice in the telogen phase (pink skin) were used in the studies. Twenty microliters of test article at two concentrations in propylene glycol/ethanol (30:70, v/v) or the vehicle control was topically applied to the shaved lower back of the mice to cover an area of approximately 1 cm^2 (20 uL/cm^2). Five mice were used in each group. The mice were treated with the compound by topical application twice daily (BID) for 4 weeks. Local irritation was recorded daily before each application, and hair growth scores were recorded twice per week. The scoring system for mouse hair growth was 0 to 4: 0=no hair growth, pink skin color; 1=skin color in shaved area changes from pink to gray without visible hair growth, indicating the onset of anagen; 2=skin color in shaved area is black with tiny hairs; 3=short black hair in shaved area; and 4=hair in shaved area is almost close to surrounding area. […]

With `CNC(=O)c1ccc(N2C(=S)N(c3ccc(C#N)c(C(F)(F)F)c3F)C(=O)C2(C)C)cc1F` [Example 12, 4-[3-(4-Cyano-2-fluoro-3-trifluoromethyl-phenyl)-5,5-dimethyl-4-oxo-2-thioxo-imidazolidin-1-yl]-2-fluoro-N-methyl-benzamide], the IC50 in assay [1] stood at 280 nM. The cytotoxicity at 2.5 µM in assay [2] was 61%; in assay [4], 86%. The compound also came in with an inhibition at 2 µM in assay [3] of 71%. Further, in assay [5] (topical BID for 4 weeks, 0.2% and 1% in 30% propylene glycol and 70% ethanol, FIG. 1), the hair growth stimulation result is reported as “stimulated hair growth in dose dependent patterns”. Moreover, the “in vivo activity for promoting hair growth compared to RU-58841” value in assay [5] (topical, compared to reference androgen receptor antagonist RU-58841) is recorded as “better in vivo activity for promoting hair growth”.

What is called IC50 is the point on the concentration scale where inhibition reaches its midpoint. Usually inhibition stands for the share of the control response that was lost under treatment. Higher therefore signals a strong effect.

The values above are taken from patent publication US8809550B2, “Androgen receptor antagonists and uses thereof” (priority 2009, dated 2014).
